According to US20230277508A1, “USE OF COMPOUND AS CYP2E1 INHIBITOR” (SHANGHAI LING XI BIOTECHNOLOGY DEVELOPMENT CO., LTD., priority 2020, published 2023):

How the values were obtained:
GL261 cells / astrocytes = assay: GL261 cells co-cultivated with M2 astrocytes; format: cell-based, mouse; conditions: SMI0 50 μmol/L vs M2 astrocyte co-cultivation group, P<0.05
Procedure: (§1) Experimental method: 10 1-2 d newborn C57BL/6 WT mice and 6 CYP2E1^−/− mice were taken, primary microglial cells and astrocytes were collected and inoculated into 6-well plates, and 24 h later, culture supernatants were taken and co-cultivated with glioma cells. Experimental groups: control group; M2 model group; high-concentration, medium-concentration, and low-concentration SMI0 (50 μmol/L, 12.5 μmol/L, and 3.1 μmol/L) groups; and CYP2E1 gene-knockout group. 24 h later, supernatants were discarded; and […] and IL-13 each were added at 20 ng/mL to induce the transformation of microglial cells into the M2 type in the M2 model group and the high-concentration, medium-concentration, and low-concentration SMI0 groups, and different concentrations of SMI0 (50 μmol/L, 12.5 μmol/L, and 3.1 μmol/L) were also added in the intervention groups. The proliferation of glioma cells was determined by a CCK8 method, and an apoptosis proportion was determined by an Annexin V-FITC-PI apoptosis staining kit.

[1] = tested on: DEN-induced rat liver damage; assay: DEN-induced rat liver damage model; format: in vivo, SD rat; conditions: plasma, vs model group
Procedure: Experimental method: An SD rat liver damage model was constructed through intermittent intraperitoneal injection of DEN. A model group was injected intraperitoneally with DEN at 50 mg/kg twice a week in the first 4 weeks and then once a week in the 5th to 8th weeks. An SMI0 intervention group, which was injected with DEN at the amount and the way the same as that in the model group, was divided into SMI0+DEN low-dose and high-dose groups and an SMI0 high-dose continuous administration group, where the SMI0+DEN low-dose and high-dose groups were intragastrically administered with the compound SMI0 at 30 mg/kg and 150 mg/kg 5 min before DEN administration each time, respectively; and the SMI0 high-dose continuous administration group was intragastrically administered with the compound SMI0 at 150 mg/kg every day from the 1st week to the 8th week. At the end of molding, blood was collected from the orbit, and plasma liver function indexes of rats were determined by an automatic biochemical analyzer (model group, n=10 rats; SMI0 compound low-dose group, n=21 rats; (150 mg/kg)^a, SMI0 compound+DEN high-dose group, n=28 rats; and (150 mg/kg)^b, SMI0 compound high-dose continuous administration group, n=24 rats].

[2] = tested on: cognitive dysfunction in STZ-induced AD rat model; assay: STZ-induced AD rat model, Morris water maze; format: in vivo, SD rat; conditions: for Number of crossing platform / Time spent in the platform quadrant: MWM spatial exploration; for Number of crossing platform / Time spent in the platform quadrant / Incubation period Day 1 / Incubation period Day 2 / Incubation period Day 3 / Incubation period Day 4 / Incubation period Day 5 / Incubation period Day 6: n=15; for Incubation period Day 1 / Incubation period Day 2 / Incubation period Day 3 / Incubation period Day 4 / Incubation period Day 5 / Incubation period Day 6: MWM
Procedure: Experimental method: A male SD rat AD model was constructed through bilateral intracerebroventricular injection of STZ, where STZ was injected at 3 mg/kg on day 1 and STZ was injected at 1.5 mg/kg on day 3. STZ was injected into bilateral cerebral ventricles (0.9 mm posterior to the anterior fontanelle, 1.5 mm at the left or right of the sagittal suture, and below the brain surface and 3.8 mm to the skull) by a brain stereotaxic instrument. The sham-operated group was injected with a same volume of a control solvent according to same operations. The low-dose and high-dose prevention and treatment groups were intragastrically administered with the compound SMI0 respectively at 10 mg/kg and 30 mg/kg starting from day 11 after modeling, and the administration was conducted consecutively for 21 d. On day 14 of the continuous administration (that is, on […] of modeling), the Morris water maze (MWM) was used to conduct spatial positioning navigation training consecutively for 6 d, and a spatial exploration experiment was conducted 24 h after the spatial positioning navigation training was completed (15 rats in each group).

[3] = tested on: CFA-induced rheumatoid arthritis in rats; assay: CFA-induced rat rheumatoid arthritis model; format: in vivo, SD rat; conditions: for rat foot swelling alleviation rate: at 36 h
Procedure: Experimental method: An SD rat rheumatoid arthritis model was constructed with CFA (0.1 mL/rat). The SMI0 intervention group was divided into an ultra-low-dose group, a low-dose group, a medium-dose group, and a high-dose group, which were intragastrically administered with the compound SMI0 respectively at 1 mg/kg, 6 mg/kg, 30 mg/kg, and 150 mg/kg every day starting from two days before modeling; and the positive control group was intragastrically administered with celecoxib at 5 mg/kg. 10 animals were provided for each group. 1 d before administration of CFA to the rats, the above grouping and doses were adopted, and then the rats were administered once every day until the modeling was completed on day 10. Each rat was administered with CFA at a sole of a right hindfoot. A volume of each of the right hindfeet of rats was measured every day by a rat foot swelling measuring instrument (which was measured every 12 h in the first 3 days). A foot swelling rate of each rat was calculated according to a change of a right hindfoot volume of the rat relative to a hindfoot volume of the rat before the CFA administration at each time point, and a difference in foot swelling rate between groups of rats was analyzed.

H22 liver cancer cells = assay: Direct effect on H22 liver cancer cells; format: cell-based; conditions: up to 100 μmol/L, 24 h
Procedure: Experimental method: HepG2 liver cancer cells and H22 liver cancer cells in a logarithmic growth phase each were selected and inoculated into a 96-well plate at a concentration of 1*10^5 cells/mL, and then 100 μL of a basic medium including SMI0 at different concentrations (0 μmol/L, 0.16 μmol/L, 0.8 μmol/L, 4 μmol/L, 20 μmol/L, and 100 μmol/L) was added to each well; and 24 h later, the proliferation activity of HepG2 was determined by a CCK8 method, a migration ability of HepG2 was determined by wound-healing assay, and an apoptosis ability of HepG2 was determined by flow cytometry (FCM).

[4] = tested on: GL261 cells / M2 microglial cells; assay: GL261 cells co-cultivated with M2 microglial cells; format: cell-based, mouse; conditions: SMI0 50 μmol/L vs M2 microglial cell co-cultivation group
Procedure: as §1

[5] = SMI0 intervention group, 8 weeks

CC(=O)c1scnc1C [SMI0]
proliferation activity of GL261 cells (GL261 cells / astrocytes): significantly weakened | albumin (ALB2) level ([1]; SMI0 intervention group (30, 150 mg/kg ig before DEN; 150 mg/kg daily), 8 weeks): significantly increased | alanine aminotransferase (ALTL) level [1, 5]: significantly reduced | alkaline phosphatase (ALP) (ALP2S) level [1, 5]: significantly reduced | cholinesterase (CHE2) level [1, 5]: significantly increased | direct bilirubin (BILD2) level [1, 5]: significantly reduced | glutamyl transpeptidase (GGTI2) level [1, 5]: significantly reduced | total bilirubin (BILT3) level [1, 5]: significantly reduced | TP2 level ([1]; SMI0 low-dose group (30 mg/kg ig)): significantly increased | Number of crossing platform ([2]; SMI0 10 mg/kg ig): 5.1 | Time spent in the platform quadrant ([2]; SMI0 10 mg/kg ig): 29.4% | Number of crossing platform ([2]; SMI0 30 mg/kg ig): 8.2 | Time spent in the platform quadrant ([2]; SMI0 30 mg/kg ig): 39.3% | Incubation period Day 1 ([2]; SMI0 10 mg/kg ig for 21 d): 95.7 s | Incubation period Day 2 ([2]; SMI0 10 mg/kg ig for 21 d): 61.1 s | Incubation period Day 3 ([2]; SMI0 10 mg/kg ig for 21 d): 39.5 s | Incubation period Day 4 ([2]; SMI0 10 mg/kg ig for 21 d): 33.2 s | Incubation period Day 5 ([2]; SMI0 10 mg/kg ig for 21 d): 23.1 s | Incubation period Day 6 ([2]; SMI0 10 mg/kg ig for 21 d): 18.5 s | Incubation period Day 1 ([2]; SMI0 30 mg/kg ig for 21 d): 94.6 s | Incubation period Day 2 ([2]; SMI0 30 mg/kg ig for 21 d): 52.7 s | Incubation period Day 3 ([2]; SMI0 30 mg/kg ig for 21 d): 35.9 s | Incubation period Day 4 ([2]; SMI0 30 mg/kg ig for 21 d): 25.2 s | Incubation period Day 5 ([2]; SMI0 30 mg/kg ig for 21 d): 20.0 s | Incubation period Day 6 ([2]; SMI0 30 mg/kg ig for 21 d): 18.6 s | improvement rate of ICV-STZ-induced cognitive dysfunction ([2]; SMI0 high-dose group (30 mg/kg), vs model group, significant): 46.7% | improvement rate of ICV-STZ-induced cognitive dysfunction ([2]; SMI0 low-dose group (10 mg/kg), without a significant statistical difference): 32.6% | rat foot swelling alleviation rate ([3]; SMI0 1 mg/kg ig daily): 20.8% | rat foot swelling alleviation rate ([3]; SMI0 6 mg/kg ig daily): 34.2% | rat foot swelling alleviation rate ([3]; SMI0 30 mg/kg ig daily): 44.1% | rat foot swelling alleviation rate ([3]; SMI0 150 mg/kg ig daily): 52.5% | rat foot swelling caused by CFA ([3]; SMI0 intervention group vs model group, P<0.001): significantly alleviated | effect on the proliferation, migration, and apoptosis of H22 liver cancer cells (H22 liver cancer cells): no significant inhibitory effect | apoptosis of GL261 cells [4]: promoted | proliferation of GL261 cells ([4]; P<0.001): significantly inhibited
